The results in this text go back to US5512581A, “Iminoxycarboxylates and derivatives as inhibitors of leukotriene biosynthesis” (Abbott Laboratories, priority 1995, dated 1996).

In general, IC50 refers to the concentration needed to halve the response being measured. A word on the ED50: it is the dose at which the effect has come halfway, by size or by number of responders. The low end stands for an effect at a small dose, the high end for a need for a large dose.

One test deals with 5-Lipoxygenase. Description: Inhibition of calcium ionophore-induced LTB4 formation in human polymorphonuclear leukocytes (PMNL). The format is cell-based. As to conditions: stimulated LTB4 formation in human PMNL; calcium ionophore 8.3 μM, 15 min preincubation. Here is the method: Inhibition of leukotriene biosynthesis was evaluated in an assay involving calcium ionophore-induced LTB4 expressed in human polymorphornuclear leukocytes (PMNL). Human PMNL isolated from heparinized (20 USP units/mL) venous blood (25 mL) obtained from healthy volunteers was layered over an equal volume of Ficoll-Hypaque Mono-Poly Resolving Medium (ICN Flow, Costa Mesa, Calif.) and centrifugated at 400 x g for 40 min at 20° C. The PMNL was collected, erythrocytes lysed and washed 2x and suspended at 1.0×10^7 cells/mL in Earle's balanced salt solution with 17 mM Earle's HEPES. Aliquots of the cell suspension were preincubated with test compounds dissolved in DMSO (final concentration <2%) for 15 min. and stimulated with calcium ionophore (final concentration 8.3 μM) for 10 min. at 37° C. Incubations were stopped with the addition of two volumes of ice-cold methanol followed by centrifuging the cell suspensions at 4° C. for 10 min at 450 x g. The mount of LTB4 in the methanol extract was analyzed by enzyme-linked immunoassay or by HPLC analysis.

A further test has as its system leukotriene biosynthesis. Description: In vivo leukotriene inhibition in rat peritoneal anaphylaxis model. As to conditions: oral gavage 1 h before antigen challenge; for % Inhibition (dose): 30 μmol/kg. Here is the method:
Inhibition of the biosynthesis of leuktrienes in vivo after oral administration of compound was determined using a rat peritoneal anaphylaxis model in a similar manner as that described by Young and coworkers (Young, P. R.; Dyer, R. D.; Carter, G. W. Fed. Proc., Fed. Am. Soc. Exp. Biol. 1985, 44, 1185). In this model rats were injected intraperitoneally (ip) with rabbit antibody to bovine serum albumin (BSA) and three hours later injected ip with BSA to induce an antgen-antibody response. Rats were sacrificed 15 minutes after this challenge and the peritoneal fluids were collected and analyzed for leukotriene levels. Test compounds were administered by gavage one hour prior to the antigen challenge. Percent inhibition values were determined by comparing the treatment group to the mean of the control group.

In a further test the test system is leukotriene. The experiment in a line: In vivo leukotriene inhibition in rat pleural inflammation (A23187 ionophore-induced). To be noted: dosed in 0.2% methocel 1 h before intrapleural A23187, male rats; for ED50: Rattus norvegicus. Here is the method:
Pleural inflammation was induced in male rats following the method of Rao et al (Rao, T. S., Currie, J. L., Shaffer, A. F., Isakson, P. C., (1993) Evaluation of 5-lipoxygenase Inhibitors, Zileuton, A-78773 and ICI D-2138 in an Ionophore (A-23 187) Induced Pleural Inflammation Model in the Rat. Life Sciences, 53: 147). Rats were dosed with experimental compounds in 0.2% methocel one hour prior to the intrapleural injection of the calcium ionophore, A23 187. The rats where lightly anesthetized with Pentrane (Abbott Laboratories) and injected intrapleurally with 0.5 ml of 2% ethanol in injectable saline (Abbott Laboratories) containing 20 ug of A23187 (Cal BioChem-Novabiochem). Thirty minutes later the animals were euthanised and the pleural cavities lavaged with ice cold saline (Abbott Laboratories). The lavage fluid was then added to ice cold methanol (final methanol concentration 30%) to lyse cells and precipitate protein. Eicosanoids were determined by enzyme immunoassay by standard methods.

Where only a bound is given, the exact number is not on record here.

As to `CC(=NOC(c1ccc(OCc2ccc3ccccc3n2)cc1)C1CCCCC1)C(=O)O` (stereo not shown) [Example 2, Cyclohexyl-(4-(2-quinolylmethoxy)phenyl)methyl!-2-iminoxy propionic acid], the IC50 in the test on 5-Lipoxygenase worked out at 4 nM. Besides, in the test on leukotriene biosynthesis, the ED50 turned out to be 1.2 mg/kg. For the same molecule, in the test with leukotriene (30 μmol/kg), the “% Inhibition (dose)” value stood at 89%.
In the case of `C/C(=N\OC(CC(C)(C)c1ccccc1)c1ccc(OCc2ccc3ccccc3n2)cc1)C(=O)O` (stereo not shown) [Example 48, 3-methyl-3-phenyl-1-(4-(2-quinolylmethoxy)phenyl)but-1-yl!-E-2-iminoxypropionic acid], the IC50 in the test on 5-Lipoxygenase was under 100 nM. Moreover, in the test on leukotriene, the 50% effect level (ED50) was put at a dose of 2 mg/kg.
For the molecule `C/C(=N\OC(c1ccc(OCc2ccc3ccccc3n2)cc1Cl)C1CCCCC1)C(=O)O` (stereo not shown) [Example 44, Cyclohexyl-(2-chloro4-(2-quinolylmethoxy)phenyl)methyl!-E-2-iminoxypropionic acid], the IC50 in the test with 5-Lipoxygenase was under 100 nM.
Same read-out and setting: the value for `COC(=O)/C(C)=N\OC(c1ccc(OCc2ccc3ccccc3n2)cc1)C1CCCCC1` (stereo not shown) [Example 30, Cyclohexyl-(4-(2-quinolylmethoxy)phenyl)methyl!-Z-2-iminoxypropionic acid methyl ester] was 170 nM; that for `C/C(=N\OC(c1ccc(OCc2ccc3ccccc3n2)cc1)c1cccs1)C(=O)O` (stereo not shown) [Example 43, 2-thienyl-(4-(2-quinolylmethoxy)phenyl)methyl!-E-2-iminoxy propionic acid] was under 100 nM; that for `O=C(O)c1ccc(C=NOC(c2ccc(OCc3ccc4ccccc4n3)cc2)C2CCCCC2)cc1` (stereo not shown) [Example 6, O-Cyclohexyl-(4-(2-quinolylmethoxy)phenyl)methyl!-4-carboxybenzaldoxime] was 32 nM.
Same read-out and setting: the value for `CC(C)(CC(O/N=C/C(=O)O)c1ccc(OCc2ccc3ccccc3n2)cc1)c1ccccc1` (stereo not shown) [Example 49, 3-methyl-3-phenyl-1-(4-(2-quinolylmethoxy)phenyl)but-1-yl!-E-2-iminoxyacetic acid] was under 100 nM.
On the same count and under the same terms, the value for `C/C(=N\O[C@H](c1ccc(OCc2ccc3ccccc3n2)cc1)C1CCCCC1)C(=O)O` [Example 37, (S)-Cyclohexyl-(4-(2-quinolylmethoxy)phenyl)methyl!-E-2-iminoxypropionic acid] was 6 nM; that for `O=C(O)C=NOCC(c1ccc(OCc2ccc3ccccc3n2)cc1)C1CCCCC1` (stereo not shown) [Example 26] was 5 nM; that for `O=C(O)c1ccc(C=NOC(CC2CCCCC2)c2ccc(OCc3ccc4ccccc4n3)cc2)cc1` (stereo not shown) [Example 14, O-2-Cyclohexyl-1-(4-(2-quinolylmethoxy)phenyl)eth-1-yl!-4-carboxybenzaldoxime] was 4 nM.
Regarding `C/C(=N\OC(Cc1ccccc1)c1ccc(OCc2ccc3ccccc3n2)cc1)C(=O)O` (stereo not shown) [Example 42, 2-phenyl-1-(4-(2-quinolylmethoxy)phenyl)eth-1-yl!-E-2-iminoxy propionic acid], the IC50 with 5-Lipoxygenase was under 100 nM.
Still for that read-out and setting: to `C/C(=N/OC(c1ccc(OCc2ccc3ccccc3n2)cc1)C1CCCCC1)C(=O)O` (stereo not shown) [Example 32, cyclohexyl-(4-(2-quinolylmethoxy)phenyl)methyl!-Z-2-iminoxypropionic acid] belongs 170 nM.
With `C/C(=N\OC(c1ccc(OCc2ccc3ccccc3n2)c(Cl)c1)C1CCCCC1)C(=O)O` (stereo not shown) [Example 45, Cyclohexyl-(3-chloro-4-(2-quinolylmethoxy)phenyl)methyl!-E-2-iminoxypropionic acid], in the test with 5-Lipoxygenase, the IC50 is under 100 nM. In the test on leukotriene, this molecule gave an ED50 of 1.2 mg/kg.
For the molecule `COC(=O)/C(C)=N/OC(c1ccc(OCc2ccc3ccccc3n2)cc1)C1CCCCC1` (stereo not shown) [Example 31, Cyclohexyl-(4-(2-quinolylmethoxy)phenyl)methyl!-E-2-iminoxypropionic acid methyl ester], the IC50 in the test on 5-Lipoxygenase is 25 nM.
On the same count and under the same terms, the value for `COC(=O)/C(C)=N/O[C@H](c1ccc(OCc2ccc3ccccc3n2)cc1)C1CCCCC1` [Example 36, (S)-Cyclohexyl-(4-(2-quinolylmethoxy)phenyl)methyl!-E-2-iminoxypropionic acid methyl ester] was 50 nM; that for `C/C(=N\OC[C@@H](c1ccc(OCc2ccc3ccccc3n2)cc1)C1CCCC1)C(=O)O` [Example 62] was 36 nM.
The same measure, in the same setting: to `C/C(=N\OC(c1ccc(OCc2ccc3ccccc3n2)cc1)C1CCCCC1)C(=O)O` (stereo not shown) [Example 33, cyclohexyl-(4-(2-quinolylmethoxy)phenyl)methyl!-E-2-iminoxypropionic acid] belongs 15 nM.
On the same count and under the same terms, to `CC(=NOC(CC1CCCCC1)c1ccc(OCc2ccc3ccccc3n2)cc1)C(=O)O` (stereo not shown) [Example 15, 2-Cyclohexyl-1-(4-(2-quinolylmethoxy)phenyl)eth-1-yl!-2-iminoxypropionic acid] belongs 6 nM; to `O=C(O)/C=N/OC(c1ccc(OCc2ccc3ccccc3n2)cc1)C1CCCCC1` (stereo not shown) [Example 40, Cyclohexyl-(4-(2-quinolylmethoxy)phenyl)methyl!-E-iminoxyacetic acid], 17 nM.
Consider `CCCCC(O/N=C(\C)C(=O)O)c1ccc(OCc2ccc3ccccc3n2)cc1` (stereo not shown) [Example 50, 4-(2-quinolylmethoxy)phenylpent-1-yl!-E-2-iminoxypropionic acid], for which, in the test on 5-Lipoxygenase, the IC50 was under 100 nM.
On to `O=C(O)c1ccc(C=NOC(CC2CCCCC2)c2ccc(OCc3cscn3)cc2)cc1` (stereo not shown) [Example 19, O-2-cyclohexyl-1-(4-(4-thiazolylmethoxy)phenyl)eth-1-yl!-4-carboxybenzaldoxime], for which, in the test with leukotriene biosynthesis, the “% Inhibition (dose)” value was determined as 81%.
Take `C/C(=N\O[C@@H](c1ccc(OCc2ccc3ccccc3n2)cc1)C1CCCCC1)C(=O)O` [Example 35, (R)-Cyclohexyl-(4-(2-quinolylmethoxy)phenyl)methyl!-E-2-iminoxypropionic acid]: the 50% inhibitory concentration (IC50) with 5-Lipoxygenase came out at 70 nM.
As to `O=C(O)C=NOC(c1ccc(OCc2ccc3ccccc3n2)cc1)C1CCCCC1` (stereo not shown) [Example 1, Cyclohexyl-(4-(2-quinolylmethoxy)phenyl)methyl!iminoxyacetic acid], the IC50 in the test with 5-Lipoxygenase came to 21 nM. Besides, the “% Inhibition (dose)” value in the test on leukotriene biosynthesis came to 82%.
Regarding `O=C(O)C=NOCC(c1ccc(OCc2ccc3ccccc3n2)cc1)C1CCCCCC1` (stereo not shown) [Example 27, 2-Cycloheptyl-2-(4-(2-quinolylmethoxy)phenyl)eth-1-yl!iminoxyacetic acid], the IC50 in the test on 5-Lipoxygenase was 8 nM. For the same molecule, in the test on leukotriene biosynthesis, the 50% effect level (ED50) was put at a dose of 0.7 mg/kg.
Take `O=C(O)C=NOC(CCCc1ccc(Cl)cc1)c1ccc(OCc2ccc3ccccc3n2)cc1` (stereo not shown) [Example 12, 4-(4-Chlorophenyl)-1-(4-(2-quinolylmethoxy)phenyl) butyl!iminoxyacetic acid]: the IC50 in the test with 5-Lipoxygenase stood at 55 nM.
The same measure, in the same setting: to `CC(=NOC(c1ccc(OCc2ccc3ccccc3n2)cc1)C1CCCCCC1)C(=O)O` (stereo not shown) [Example 58, Cycloheptyl-(4-(2-quinolylmethoxy)phenyl)methyl!-2-iminoxy propionic acid] belongs under 100 nM; to `CCCCC(O/N=C/C(=O)O)c1ccc(OCc2ccc3ccccc3n2)cc1` (stereo not shown) [Example 51], under 100 nM.
Still for that read-out and setting: the value for `CC(C)(C=NOCC(c1ccc(OCc2ccc3ccccc3n2)cc1)C1CCCCCC1)C(=O)O` (stereo not shown) [Example 28, 2-cycloheptyl-2-(4-(2-quinolylmethoxy)phenyl)eth-1-yl!-3-iminoxy-2,2-dimethylpropionic acid] was 5 nM; that for `CC(=NOCc1ccc(OCc2ccc3ccccc3n2)cc1Cl)C(=O)O` [Example 57, 2-chloro-(4-(2-quinolylmethoxy)phenyl)methyl!-2-iminoxy propionic acid] was under 100 nM; that for `CC(=NOCC(c1ccc(OCc2ccc3ccccc3n2)cc1)C1CCCCC1)C(=O)O` (stereo not shown) [Example 55, Cyclohexyl-1-(4-(2-quinolylmethoxy)phenyl)eth-2-yl!-2-iminoxy propionic acid] was 30 nM.
Still for that read-out and setting: to `COC(=O)/C(C)=N/O[C@@H](c1ccc(OCc2ccc3ccccc3n2)cc1)C1CCCCC1` [Example 34] belongs 470 nM.
